This is an account of results in patent US6218400A, “Treatment method using a cGMP-Specific PDE inhibitor” (ICOS Corporation, priority 1995, dated 2001).

One assay concerns the target human recombinant PDE V (Homo sapiens, UniProt O76074). In words: Inhibitory effect on cGMP-PDE (one-step assay, human recombinant PDE V). In kind it is biochemical. Conditions: 0.15 μM 8-[H^3]-cGMP, 2% DMSO, 30 minutes. Here is the method: cGMP-PDE activity of compounds of the present invention was measured using a one-step assay adapted from Wells at al. (Wells, J. N., Baird, C. E., Wu, Y. J. and Hardman, J. G., Biochim. Biophys. Acta 384, 430 (1975)). The reaction medium contained 50 mM Tris-HCl,pH 7.5, 5 mM Mg-acetate, 250 μg/ml 5'-Nucleotidase, 1 mM EGTA and 0.15 μM 8-[H^3 ]-cGMP. The enzyme used was a human recombinant PDE V (ICOS, Seattle USA).
Compounds of the invention were dissolved in DMSO finally present at 2% in the assay.

The test system of assay [1] is Rat aortic smooth muscle cells (RSMC). In words: cGMP level measurements in rat aortic smooth muscle cells (RSMC). It counts as cell-based. To be noted: 10 min, cGMP after ANF (100 nM) stimulation for 10 minutes, dose giving half of the stimulation at saturating concentrations. As to the method: Rat aortic smooth muscle cells (RSMC) prepared according to Chamley et al. in Cell Tissue Res. 177, 503-522 (1977) were used between the 10th and 25th passage at confluence in 24-well culture dishes. Culture media was aspirated and replaced with PBS (0.5 ml) containing the compound tested at the appropriate concentration. After 30 minutes at 37° C., particulates guanylate cyclase was stimulated by addition of ANF (100 nM) for 10 minutes. At the end of incubation, the medium was withdrawn and two extractions were performed by addition of 65% ethanol (0.25 ml). The two ethanolic extracts were pooled and evaporated until dryness, using a Speed-vac system. c-GMP was measured after acetylation by scintillation proximity immunoassay ([…]). The EC50 values are expressed as the dose giving half of the stimulation at saturating concentrations

Assay [2] relates to conscious spontaneously hypertensive rats (SHRs). Put plainly: Hypotensive effects in conscious spontaneously hypertensive rats. Conditions: AUC from 0 to 5 hours. It counts as in vivo, rat. Here is the method: The hypotensive effects of compounds according to the invention as identified in Table 2 were studied in conscious spontaneously hypertensive rats (SHRs). The compounds were administered orally at a dose of 5 or 10 mg/kg in a mixture of 5% DMF and 95% olive oil, or i.v. at a dose of 10 mg/kg in a mixture of 40% dimethylformamide, 25% tetraglycol, and […]. Blood pressure was measured from a catheter inserted in the carotid artery and recorded for 5 hours after administration. The results are expressed as Area Under the Curve (AUC from 0 to 5 hours, mmHg.hour) of the fall in blood pressure over time.

Some results are limits rather than exact numbers.

`O=C1[C@H]2Cc3c([nH]c4ccccc34)[C@@H](c3ccc4c(c3)OCO4)N2C(=O)N1Cc1ccccc1` [Example 32, (5R,11aR)-2-benzyl-5-(3,4-methylenedioxyphenyl)-5,6,11,11a-tetrahydro-1H-imidazo [1',5':1,6]pyrido[3,4-b]indole-1,3(2H)-dione]: the IC50 at human recombinant PDE V was under 10 nM. In assay [1], this molecule returned an EC50 of 200 nM. In addition, in assay [2] (dosed at 5 mg/kg p.o.), the “AUC of the fall in blood pressure over time” value (“AUC of the fall … over time” below) came out at 65 mmHg·h.
In assay [1], `CCCCN1C(=O)[C@@H]2Cc3c([nH]c4ccccc34)[C@H](c3ccc(OC)cc3)N2C1=O` (relative stereo) [Example 10, Trans-2-butyl-5-(4-methoxyphenyl)-5,6,11,11a-tetrahydro-1H-imidazo [1',5':1,6] pyrido[3,4-b]indole-1,3(2H)-dione] came in with an EC50 of under 1000 nM. The “AUC of the fall … over time” value in assay [2] (dosed at 10 mg/kg i.v.) is 147 mmHg·h.
On to `COc1ccc([C@H]2c3[nH]c4ccccc4c3C[C@@H]3C(=O)N(C4CCCCC4)C(=O)N23)cc1` (relative stereo) [26 (cis isomer), Cis-2-cyclohexyl-5-(4-methoxyphenyl)-5,6,11,11a-tetrahydro-1H-imidazo [1',5':1,6] pyrido[3,4-b]indole-1,3(2H)-dione], for which the IC50 at human recombinant PDE V was 7 nM. For the same molecule, in assay [1], a half-maximal response (EC50) required 300 nM. Also, the “AUC of the fall … over time” value in assay [2] (dosed at 10 mg/kg i.v.) is listed as 117 mmHg·h.
For the molecule `O=C1[C@H]2Cc3c([nH]c4ccccc34)[C@H](c3ccc4c(c3)OCO4)N2C(=O)N1Cc1ccccc1` (relative stereo) [1 (cis isomer), Cis-2-benzyl-5-(3,4-methylenedioxyphenyl)-5,6,11,11a-tetrahydro-1H-imidazo [1',5':1,6]pyrido[3,4-b]indole-1,3(2H)-dione], the concentration for half-maximal inhibition (IC50) on human recombinant PDE V is under 10 nM. The same molecule displayed an EC50 in assay [1] of 300 nM. Further, in assay [2] (dosed at 5 mg/kg p.o.), the “AUC of the fall … over time” value was 104 mmHg·h.
